Type in all cases: in vivo
One data set is described as follows: Acute toxicity in mice. The settings on record: mouse, in vivo, single dose. The method, then:
(§1) (a) Acute toxicity in mice
(§2) Each compound was administered orally, intra-peritoneally, or intravenously as a single dose.

For data set [1], the system named is anoxia induced dysrhythmias. In words: Anoxia induced dysrhythmias in rats, after pre-treatment with a subliminal dosage of aconitine. The method, then:
(§3) The anti-dysrhythmic activity of the compounds of the formula (I) was evaluated according to the following pharmacological tests:
anoxia induced dysrhythmias in rats, after pre-treatment with a subliminal dosage of aconitine (combination of the effects of a sympathetic stimulation with those due to perturbations of ionic conductions);

For the next data set, the system named is mice. In words: Acute toxicity in mice. The settings on record: single dose, behavior observed. How it is done: as §1, §2
The test system of data set [2] is maximum stimulation heart rate (FMS). In words: Maximum stimulation heart rate (FMS) in rabbits. How it is done:
as §3
maximum stimulation heart rate (FMS)
The FMS, as determined in vivo in rabbits by cardiac stimulation by means of a stimulation probe placed in the left auricular cavity, provides an overall determination of the duration of the refractory period of the conductive routes and of the fibres of the myocardium.

In data set [3] the test system is dysrhythmia on central stimulation. The data set can be described thus: Dysrhythmia on central stimulation in rabbits. How it is done:
The anti-dysrhythmic activity of the compounds of the formula (I) was evaluated according to the following pharmacological tests: […]

Data set [4] has as its system ouabaine induced dysrhythmias. In words: Ouabaine induced dysrhythmias in guinea-pigs. The settings on record: 10-20 mg/kg i.v., guinea-pig. How it is done:
as §3
ouabaine induced dysrhythmias in guinea-pigs: at toxic dosages, ouabaine affects transmembrane ionic exchanges; on the other hand, it induces a concomitant sympathetic activation.

The test system of data set [5] is dysrhythmias induced by localized ischemia. In words: Method according to Harris, in dogs (coronary ligation). The conditions noted are these: 10 mg/kg i.v. The method, then: as §3
method according to Harris, in dogs: coronary ligation and dysrhythmias induced by localized ischemia.

Data set [6] has as its system aconitine induced dysrhythmias. In words: Aconitine induced dysrhythmias in rats. How it is done:
as §3
aconitine induced dysrhythmias in rats: this agent has a deeply perturbating effect on the ionic permeability of the membranes;

[7] abbreviates: intravenous, read-out: LD50, i.v.
The mark [8] stands for this setting: ip, intra-peritoneal, read-out: LD50, i.p.

Where a name gives a salt, the structure may show the parent alone. Read-outs that look alike come from different tables or passages of the source.

As for `NC1=NCC(c2cc3ccccc3o2)C1` (stereo not shown) [Example 1, 2-Amino-4-(2-benzofuryl)Δ-1-pyrroline hydrochloride], the LD50 was 46 mg/kg in the data set “Acute toxicity in mice” (setting [7]); 58 mg/kg in “Acute toxicity in mice” (setting [8]); 115 mg/kg in the data set “Acute toxicity in mice” (oral, read-out: LD50, p.o.).

For the compound `CCN(CC)C1=NCC(c2cc3ccccc3o2)C1` (stereo not shown) [Example 5, 2-Diethylamino-4-(2-benzofuryl)Δ-1-pyrroline fumarate], the LD50 amounted to 58 mg/kg in the data set “Acute toxicity in mice” (setting [8]) and 180 mg/kg in “Acute toxicity in mice” (oral, read-out: LD50, p.o.).

With `CN1CCN(C2=NCC(c3cc4ccccc4o3)C2)CC1` (stereo not shown) [Example 10, 2-(4-Methyl-piperazino)-4-(2-benzofuryl)Δ-1-pyrroline methanesulfonate], the LD50 in the data set “Acute toxicity in mice” (setting [8]) was 142 mg/kg; in “Acute toxicity in mice” (oral, read-out: LD50, p.o.), above 200 mg/kg. Further, the “Anoxia Rat” value in data set [1] (10 mg/kg i.v.) is given as “+”.

For `CC(C)NC1=NCC(c2cc3ccccc3o2)C1` (stereo not shown) [Example 3, 2-Isopropylamino-4-(2-benzofuryl)Δ-1-pyrroline hydrochloride], the LD50 in the data set “Acute toxicity in mice” (setting [8]) was 58 mg/kg; in “Acute toxicity in mice” (oral, read-out: LD50, p.o.), 200 mg/kg. In addition, the “Anoxia Rat” value in data set [1] (10 mg/kg i.v.) was “+”.

As to `c1ccc2oc(C3CN=C(N4CCOCC4)C3)cc2c1` (stereo not shown) [Example 9, 2-Morpholino-4-(2-benzofuryl)Δ-1-pyrroline hydrochloride], the LD50 in “Acute toxicity in mice” (setting [8]) is 142 mg/kg; in “Acute toxicity in mice” (oral, read-out: LD50, p.o.) it was above 200 mg/kg. In addition, the “Anoxia Rat” value in data set [1] (i.v., dose not given) was 0.

Consider `CN(C)C1=NCC(c2cc3ccccc3o2)C1` (stereo not shown) [Example 4, 2-Dimethylamino-4-(2-benzofuryl)Δ-1-pyrroline hydrochloride], for which the LD50 in the data set “Acute toxicity in mice” (setting [7]) worked out at 38.5 mg/kg; in “Acute toxicity in mice” (oral, read-out: LD50, p.o.) it was 240 mg/kg. In addition, in the data set with mice, the “Remarks (acute toxicity)” value is “convulsions”. Also, the “FMS Rabbit” value in data set [2] (2.5 mg/kg i.v.) is reported as “+”. Besides, the “Central stimulation Rabbit” value in data set [3] (5 mg/kg i.v.) is “++”. In addition, in data set [1] (10-20 mg/kg i.v.), the “Anoxia Rat” value is “++”. Further, the “Ouabaine Cobaye” value in data set [4] is “+”. Also, in data set [5], the “Harris Ligation Dog” value is recorded as “+”.

For the compound `c1ccc2oc(C3CN=C(N4CCCC4)C3)cc2c1` (stereo not shown) [Example 8, 2-Pyrrolidino-4-(2-benzofuryl)Δ-1-pyrroline hydrochloride], the LD50 amounted to 76 mg/kg in the data set “Acute toxicity in mice” (setting [8]) and 200 mg/kg in the data set “Acute toxicity in mice” (oral, read-out: LD50, p.o.). For the same compound, the “Aconitine Rat” value in data set [6] (10 mg/kg i.v.) is reported as “+”. Moreover, the “Anoxia Rat” value in data set [1] (10 mg/kg i.v.) is “+”.

Consider `c1ccc(NC2=NCC(c3cc4ccccc4o3)C2)cc1` (stereo not shown) [Example 6, 2-Anilino-4-(2-benzofuryl)Δ-1-pyrroline hydrochloride], for which the LD50 worked out at 58 mg/kg in “Acute toxicity in mice” (setting [8]) and 110 mg/kg in the data set “Acute toxicity in mice” (oral, read-out: LD50, p.o.). The “Remarks (acute toxicity)” value with mice is “Hyperesthesia”. The “FMS Rabbit” value in data set [2] (2.5 mg/kg i.v.) is “+”. Further, in data set [3] (2.5 mg/kg i.v.), the “Central stimulation Rabbit” value is on record as “+”. In addition, in data set [1] (i.v., dose not given), the “Anoxia Rat” value amounted to 0.

Consider `c1ccc(CCNC2=NCC(c3cc4ccccc4o3)C2)cc1` (stereo not shown) [Example 7, 2-Phenethylamino-4-(2-benzofuryl)Δ-1-pyrroline hydrochloride], for which the LD50 is 98 mg/kg in the data set “Acute toxicity in mice” (setting [8]) and above 200 mg/kg in the data set “Acute toxicity in mice” (oral, read-out: LD50, p.o.). Further, the “Remarks (acute toxicity)” value in the data set on mice was “Convulsions”. For the same compound, the “FMS Rabbit” value in data set [2] (2 mg/kg i.v.) is on record as “+”. Moreover, the “Central stimulation Rabbit” value in data set [3] (i.v., dose not given) stood at 0. Further, the “Aconitine Rat” value in data set [6] (5 mg/kg i.v.) is on record as “+”.

Turning to `CNC1=NCC(c2cc3ccccc3o2)C1` (stereo not shown) [Example 2, 2-Methylamino-4-(2-benzofuryl)Δ-1-pyrroline hydrochloride], the LD50 in “Acute toxicity in mice” (setting [8]) was 58 mg/kg; in the data set “Acute toxicity in mice” (oral, read-out: LD50, p.o.) it was above 200 mg/kg. Moreover, in data set [2] (7.5 mg/kg i.v.), the “FMS Rabbit” value is reported as “+”. For the same compound, the “Central stimulation Rabbit” value in data set [3] (3 mg/kg i.v.) is recorded as “+”. Further, the “Aconitine Rat” value in data set [6] (10 mg/kg i.v.) is “+”.

As a reminder, the LD50 is the dose at which mortality reaches 50%.

(Values after US4443468A, “Benzofuran derivatives, process for their preparation and their therapeutic applications” (Laboratoires Jacques Logeais, priority 1978, dated 1984).)
